According to patent US8630703B2, “Treatment utilizing hydrophobic weak bases chemotherapeutic agents and illumination” (Technion Research & Development Foundation Limited, priority 2011, dated 2014):
pIC50: −log10 of the molar value. Read-outs that look alike come from different tables or passages of the source.

Columns and labels:
[1] = test system: human umbilical vein endothelial cells (HUVEC); test: Fluorescence microscopy of endothelial cells; format: cell-based; details: 1 μM
Method: Human umbilical vein endothelial cells (HUVEC) were isolated by perfusion of umbilical veins (Department of Obstetrics and Gynaecology, VU University Medical Center) with trypsin. Cells were routinely cultured in RPMI-1640 medium (Life Technologies, Breda, The Netherlands) supplemented with 10% heat-inactivated human serum, 10% heat-inactivated FCS, 2 mM L-glutamine (Life Technologies, Netherlands), […] streptomycin and 50 U/ml penicillin (ICN Biomedicals) in a 0.2% gelatin coated 75 cm^2 tissue culture flask at 37° C. in an atmosphere with 5% CO2. HUVEC used for experiments were cultured without addition of extra growth factors and used for experiments between passage 2 and 4.
Freshly-isolated human umbilical vein endothelial cells (HUVEC), RF24 immortalized HUVEC cells, and human dermis derived endothelial cells (HMEC) were obtained and grown in vitro as described in the Materials and Methods section hereinabove. The cells were then seeded at 10^4 cells/well in a 24-well tissue culture plate. Twenty four hours after seeding, the cells were incubated for 1 hour with 10 or 1 μM of either C-1375, C-1379 or sunitinib. After this incubation, the cells in the 24-well plates were evaluated by fluorescence microscopy. […]

2008/MRP1 cells = test: XTT cytotoxicity assay with and without illumination
Method: (§1) Parental cells and their MDR (multi-drug resistant) sub-lines were seeded in 96-well plates (2×10^4 cells/well in 90 μl growth medium/well). […] Following incubation for 2 hours, the drug-containing medium was replaced by drug-free medium. The cells were then placed on an illuminator plate (Model 460, thin line series, S&S X-Ray Products Inc., Brooklyn, N.Y.) for 1 hour, thereby achieving a light dose of 5 J/cm^2 white light. After illumination, plates were further incubated for an additional 24 hours.
(§2) Cell viability was determined using an XTT (2,3-bis-(2-methoxy-4-nitro-5-sulfophenyl)-2H-tetrazolium-5-carboxanilide) Cell Proliferation Kit (Biological Industries). […] Results are presented as mean values of at least three independent experiments.

A549/K1.5 cells = test: as above; format: cell-based, Human; details: A549/K1.5
Method: Human non-small cell lung cancer A549 cells and their ABCG2-overexpressing MDR (multi-drug resistant) A549/K1.5 sub-line; ovarian carcinoma cell line 2008 and its stable MRP1-transfectant 2008/MRP1; and human non-small lung cancer cell line SW1573 and its ABCB1-overexpressing subline SW1573/2R160) were maintained in RPMI-1640 medium supplemented with 10% fetal bovine serum, 2 mM glutamine, 100 μg/ml penicillin and streptomycin (Biological Industries, Beth-Haemek, Israel) in a humid atmosphere containing 5% CO2 at 37° C.
as §1
(§3) Cell viability was determined using an XTT (2,3-bis-(2-methoxy-4-nitro-5-sulfophenyl)-2H-tetrazolium-5-carboxanilide) Cell Proliferation Kit (Biological Industries). The drug concentrations required to inhibit cell growth by 50% (i.e., IC50 values) were determined from the cell survival curves in the absence and in the presence of illumination. Results are presented as mean values of at least three independent experiments.

A549 cells = test: as above
Method: as §1, §2

SW1573 cells = test: as above
Method: as §1, §2

[2] = test system: MDR SW/2R160 and 2008/MRP1 cells; test: XTT cytotoxicity, result stated jointly for MDR cells; format: cell-based
Method: as §1, §3

[3] = Absorption, emission and excitation spectra; format: physicochemical; details: aqueous 0.9% NaCl
Method: Stock solutions containing sunitinib or the imidazoacridinones (IAs) C-1375 and C-1379 in 100% dimethyl sulfoxide were diluted with aqueous 0.9% NaCl solution under continuous stirring. Absorption spectra were recorded with a two-beam Cary 500 UV-VIS-NIR spectrophotometer (Varian) in 1 cm long Suprasil® quartz cuvettes (Hellma), at an average scan speed of 600 nm/minute, at 20° C. The steady state emission and excitation spectra were recorded with an LS 50B luminescence spectrometer (Perkin-Elmer).

2008 cells = test: XTT cytotoxicity assay with and without illumination
Method: as §1, §2

[4] = test system: chicken chorioallantoic membrane (CAM) vasculature; test: Chorioallantoic membrane (CAM) model of photodynamic therapy; format: in vivo; details: 100 μg/embryo i.v.; 420 nm, 20 J/cm^2, 1 minute after injection; 24 hours after treatment
Method: Fertilized chicken eggs (Animalco AG) were labeled and transferred into a hatching incubator with a relative air humidity of 65% and a temperature of 37° C. The incubator was equipped with an automatic fan (Savimat). On embryonic development day (EDD) 3, a hole of approximately 3 mm in diameter was opened in the eggshell above the air pouch of the egg and covered with Parafilm® wrapping film (Pechiney) to prevent dehydration and possible infections. The eggs were then returned to the incubator in a static position until use. On EDD 11, the hole in the shell was extended to a diameter of approximately 3 cm in order to provide better access to the chorioallantoic membrane (CAM) during experiments.
Eggs were placed under an Eclipse 600 FN epi-fluorescence microscope equipped with a Plan Apo 4/0.2, working distance 20 objective (Nikon). Microscopic observation and illumination of a region of the CAM was performed as described previously [Lim et al., Photochem Photobiol 2010, 86:397-402; Lim et al., J Med Chem 2010, 53:2865-2874; Nowak-Sliwinska et al., Angiogenesis 2010, 13:281-292]. Illumination was provided by a 100 W high pressure Hg-arc lamp. Light doses were adjusted with neutral density filters and measured with a calibrated Field-Master GS power meter (Coherent Inc.). Fluorescence images were acquired with an F-view II 12-bit monochrome Peltier-cooled digital CCD camera driven with analySIS DOCU software (Soft Imaging System GmbH).
For excitation and detection of imidazoacridinones (IAs) or sunitinib, the microscope was equipped with a filter set (Nikon) characterized by excitation wavelengths of 420±20 nm and emission wavelengths of >470 nm,
After the treatment the eggs were numbered, covered and returned to the incubator. Each treatment group included 5 eggs.
Chorioallantoic membranes (CAMs) were intravenously injecting chorioallantoic membranes with 20 μl of a solution of FITC-dextran (20 kDa, 25 mg/ml). Fluorescence angiography was then performed using light from an Hg-arc lamp and light filters (Nikon) which provided excitation wavelengths of 470±20 nm and emission wavelengths of >520 nm for observing the fluorescence. In order to increase the quality of the recorded angiographs, a light absorber, in the form of India ink, was injected (30 μl) into the extra-embryonic cavity. The purpose of this second injection was to decrease the influence of the CAM auto-fluorescence background, which changes rapidly with time due to the embryo's movement. The India ink was filtered shortly before injection, using a sterile cellulose acetate membrane with 0.2 μm pores (Renner GmbH).
Photodynamic therapy (PDT) was performed at embryo development day (EDD) 11, at which stage the CAM is fully developed and contains a vessel network with a regular capillary plexus. The imidazoacridinones were intravenously injected into the main vessel of the CAM through a 33-gauge needle fitted to a 100 μl syringe (Hamilton), at a concentration of 1 mg/ml and a volume of 100 μl, which corresponds to a dose of 100 μg, or approximately 10 mg/kg embryo body weight.
One minute after injection, a region of the CAM which contained vessels of diameters in a range of 5 to 70 μm was illuminated (420±20 nm) at a light dose of 20 J/cm^2 and an irradiance of […]. […]
The illuminated area was 0.02 cm^2, as delimited by an optical diaphragm. The fluorescence of sunitinib was visible in the vasculature of the CAMs prior to PDT.

[5] = test system: human dermis derived endothelial cells (HMEC); test: Fluorescence microscopy of endothelial cells; format: cell-based; details: 1 μM, blue light (420 nm)
Method: Endothelial cell lines RF24 and HMEC, were provided by Dr. H. Pannekoek (CLB, Amsterdam, Netherlands) and Dr. D van der Schaft (Maastricht University), respectively.
Freshly-isolated human umbilical vein endothelial cells (HUVEC), RF24 immortalized HUVEC cells, and human dermis derived endothelial cells (HMEC) were obtained and grown in vitro as described in the Materials and Methods section hereinabove. The cells were then seeded at 10^4 cells/well in a 24-well tissue culture plate. Twenty four hours after seeding, the cells were incubated for 1 hour with 10 or 1 μM of either C-1375, C-1379 or sunitinib. After this incubation, the cells in the 24-well plates were evaluated by fluorescence microscopy. For excitation and detection of imidazoacridinones (IAs) or sunitinib, the microscope was equipped with a filter set (Nikon) characterized by excitation wavelengths of 420±20 nm and emission wavelengths of >470 nm.

SW1573/2R160 cells = test: XTT cytotoxicity assay with and without illumination
Method: Cells were grown in drug-free conditions for one week before any analysis.
as §1, §2

## COc1ccc2c(c1)c(=O)c1c(NCCCN(C)C)ccc3nc(C)n2c31 [C-1375]
[1]; approximately 2 minutes of illumination
  photodestruction of lysosomes: most of the lysosomes had disappeared
[1]; illumination 1 minute (420 nm)
  photodestruction of lysosomes: many lysosomes were destroyed
2008/MRP1 cells; control vs illumination
  Fold sensitization: 51
2008/MRP1 cells; illumination
  C-1375 LD50 Illumination: 101 ± 0.1 nM
  Survival at 1000 nM Illumination: 13 ± 3%
2008/MRP1 cells; no illumination
  C-1375 LD50 Control: 5.115 ± 0.889 µM
  Survival at 1000 nM Control: 80 ± 2%
A549/K1.5 cells; control vs illumination
  Fold sensitization: 10
A549/K1.5 cells; no illumination
  LD50 Control: 5.264 ± 0.877 µM
  Survival at 3000 nM Control: 70 ± 5%
A549/K1.5 cells; white light 1 hour (5 J/cm^2)
  LD50 Illumination: 541 ± 56 nM
A549/K1.5 cells; white light illumination
  Survival at 3000 nM Illumination: 3 ± 0.6%
A549 cells; control vs illumination
  Fold sensitization: 14
A549 cells; no illumination
  Survival at 3000 nM Control: 50 ± 3%
A549 cells; no illumination, 2 h drug, XTT 24 h later
  LD50 Control: 3.054 ± 0.26 µM
A549 cells; white light 1 hour (5 J/cm^2)
  LD50 Illumination: 212 ± 29 nM
A549 cells; white light illumination
  Survival at 3000 nM Illumination: 3 ± 2%
SW1573 cells; control vs illumination
  Fold sensitization: 24
SW1573 cells; illumination
  C-1375 LD50 Illumination: 233 ± 5 nM
  Survival at 1000 nM Illumination: 11 ± 2%
SW1573 cells; no illumination
  C-1375 LD50 Control: 5.535 ± 0.596 µM
  Survival at 1000 nM Control: 68 ± 6%
[2]; illumination, read-out: IC50 with illumination
  pIC50: 6.48 to 7.05
[2]; no illumination, read-out: IC50 in the absence of illumination
  pIC50: 5.26 to 5.48
[3]
  Peak absorption: 444 nm
  Peak emission: 553 nm
  Peak excitation: 449 nm
2008 cells; control vs illumination
  Fold sensitization: 36
2008 cells; illumination
  C-1375 LD50 Illumination: 90 ± 9 nM
  Survival at 1000 nM Illumination: 11 ± 4%
2008 cells; no illumination
  C-1375 LD50 Control: 3.28 ± 0.345 µM
  Survival at 1000 nM Control: 72 ± 0.8%
[4]
  vascular effect in illuminated area: vaso-occlusion within the illuminated area
[5]
  photodestruction of lysosomes: lysosome destruction and accumulation of C-1375 in the nuclei also occurred
SW1573/2R160 cells; control vs illumination
  Fold sensitization: 13
SW1573/2R160 cells; illumination
  C-1375 LD50 Illumination: 330 ± 56 nM
  Survival at 1000 nM Illumination: 24 ± 4%
SW1573/2R160 cells; no illumination
  C-1375 LD50 Control: 4.384 ± 0.125 µM
  Survival at 1000 nM Control: 74 ± 3%
